{"source": "paper PMC6934184", "about": "“Selective DNA-PKcs inhibition extends the therapeutic index of localized radiotherapy and chemotherapy” (The Journal of Clinical Investigation, 2019)", "target": "T1, TEK (TIE2) R849W (Homo sapiens, UniProt Q02763, R849W)", "T1 construct": "purchased Thermo Fisher Scientific (Life Technologies) SelectScreen", "T1 sequence (Q02763 23-1124 R849W)": "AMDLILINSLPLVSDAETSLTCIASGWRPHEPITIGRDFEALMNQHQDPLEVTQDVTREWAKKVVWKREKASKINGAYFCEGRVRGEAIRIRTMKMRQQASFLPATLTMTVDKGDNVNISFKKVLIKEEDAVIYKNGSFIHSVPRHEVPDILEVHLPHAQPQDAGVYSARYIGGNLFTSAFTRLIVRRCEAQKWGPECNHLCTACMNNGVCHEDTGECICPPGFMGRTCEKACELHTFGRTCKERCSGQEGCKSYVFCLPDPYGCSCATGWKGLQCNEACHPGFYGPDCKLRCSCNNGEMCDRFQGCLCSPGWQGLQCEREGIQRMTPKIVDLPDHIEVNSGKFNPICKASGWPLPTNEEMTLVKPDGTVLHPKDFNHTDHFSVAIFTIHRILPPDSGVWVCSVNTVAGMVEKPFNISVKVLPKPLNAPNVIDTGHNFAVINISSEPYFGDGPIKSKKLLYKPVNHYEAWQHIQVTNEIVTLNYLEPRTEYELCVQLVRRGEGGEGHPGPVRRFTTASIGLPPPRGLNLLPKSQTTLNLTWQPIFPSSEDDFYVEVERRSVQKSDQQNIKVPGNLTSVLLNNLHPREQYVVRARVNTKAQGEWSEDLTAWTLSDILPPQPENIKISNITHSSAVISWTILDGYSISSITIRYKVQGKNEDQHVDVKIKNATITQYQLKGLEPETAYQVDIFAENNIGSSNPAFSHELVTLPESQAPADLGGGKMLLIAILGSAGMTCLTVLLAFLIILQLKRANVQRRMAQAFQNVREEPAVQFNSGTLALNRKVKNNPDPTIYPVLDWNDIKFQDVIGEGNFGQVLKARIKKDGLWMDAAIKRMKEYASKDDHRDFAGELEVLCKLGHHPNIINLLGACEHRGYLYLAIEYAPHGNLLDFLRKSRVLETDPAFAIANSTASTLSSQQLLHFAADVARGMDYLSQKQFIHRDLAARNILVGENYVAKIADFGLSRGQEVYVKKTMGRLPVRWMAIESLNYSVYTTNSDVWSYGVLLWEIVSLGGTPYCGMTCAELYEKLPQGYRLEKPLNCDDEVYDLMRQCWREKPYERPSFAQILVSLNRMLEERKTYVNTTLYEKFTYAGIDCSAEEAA", "assay": "SelectScreen LanthaScreen", "format": "binding", "conditions": "read-out: % displacement", "outline": "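Percent values come from Thermo SelectScreen profiling of NU5455, combining activity and binding assays. CSF1R was run in Z'LYTE format at Km app ATP, and CAMK1 in Adapta format with ATP listed at 10.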"}
{"smiles": "CN(C(=O)CN1CCOCC1)c1ccc2sc3c(-c4cccc5c(=O)cc(N6CC7CCC(C6)O7)oc45)cccc3c2c1", "note": "[NU5455]", "values": [{"measurement": "inhibition at 1 µM", "value": -3.3, "unit": "%"}]}
